Test systems include HCT-15 colon; IGROV1 ovarian; K-562 leukemia; MOLT-4 leukemia; OVCAR-3 ovarian; OVCAR-4 ovarian; OVCAR-8 ovarian; SK-MEL-2 melanoma; UACC-62 melanoma; UO-31 renal.
Holding throughout (assay): growth of human tumour cells (NCI), 48 h

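How tested: cells in 96-well plates exposed to compound for 48 hours at five concentrations. GI50 marks 50% less growth. At the TGI there is no net growth.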

Take `C/C(CCn1[nH]c(=O)ccc1=O)=N\O`: the TGI with HCT-15 colon, in the test on IGROV1 ovarian, in the test on K-562 leukemia, in the test with MOLT-4 leukemia, in the test on OVCAR-3 ovarian and with OVCAR-4 ovarian was above 100 µM throughout. Also, the TGI in the test with OVCAR-8 ovarian, in the test on SK-MEL-2 melanoma, in the test with UACC-62 melanoma and with UO-31 renal was above 100 µM throughout.
As for `c1cc2c(cc1NC1=NCCO1)CCC2`, the TGI in the test on HCT-15 colon, in the test with IGROV1 ovarian, in the test on K-562 leukemia, in the test on MOLT-4 leukemia, with OVCAR-3 ovarian and in the test on OVCAR-4 ovarian was above 10 µM in each case. The TGI with OVCAR-8 ovarian, in the test on SK-MEL-2 melanoma and with UACC-62 melanoma was above 10 µM each time.
With `O=C(Nc1ccc(F)cc1F)c1cc(I)ccc1O`, the GI50 was 3.27 µM in the test with HCT-15 colon; 2.4 µM in the test with IGROV1 ovarian; 3.16 µM with K-562 leukemia; 3.15 µM in the test on MOLT-4 leukemia; 3.13 µM in the test on OVCAR-3 ovarian; 2.49 µM in the test with OVCAR-4 ovarian. In addition, the GI50 with OVCAR-8 ovarian is 3.23 µM; in the test with SK-MEL-2 melanoma it was 2.29 µM; in the test with UACC-62 melanoma, 1.46 µM; with UO-31 renal it was 1.63 µM. Also, the TGI is 45.5 µM with HCT-15 colon; above 100 µM in the test on IGROV1 ovarian; above 100 µM in the test with K-562 leukemia; 16.3 µM with MOLT-4 leukemia; 23.2 µM in the test with OVCAR-3 ovarian; above 100 µM in the test with OVCAR-8 ovarian. Further, the TGI was found to be 6.07 µM with SK-MEL-2 melanoma, 4.49 µM with UACC-62 melanoma and 6.11 µM in the test on UO-31 renal.
`O=C(CN1CCN(c2cc3c(cc2F)c(=O)c(C(=O)N/N=C/c2ccccc2O)cn3C2CC2)CC1)N/N=C\c1ccccc1O`: the GI50 with HCT-15 colon was 0.33 µM; in the test on IGROV1 ovarian, 0.787 µM; in the test on K-562 leukemia, 0.389 µM; in the test with MOLT-4 leukemia it was 0.267 µM; in the test with OVCAR-3 ovarian, 0.269 µM; with OVCAR-4 ovarian it was 0.204 µM. The GI50 is 0.417 µM in the test with OVCAR-8 ovarian, 1.66 µM with SK-MEL-2 melanoma, 0.758 µM in the test with UACC-62 melanoma and 0.359 µM in the test with UO-31 renal. The TGI with HCT-15 colon, with IGROV1 ovarian, in the test on K-562 leukemia, with MOLT-4 leukemia, in the test with OVCAR-3 ovarian and with OVCAR-4 ovarian was above 100 µM each time. The TGI in the test with OVCAR-8 ovarian was above 100 µM; with SK-MEL-2 melanoma, above 100 µM; in the test on UACC-62 melanoma, 12.4 µM; with UO-31 renal, above 100 µM.
On to `COc1cc(/C=C/c2cc(/C=C/c3ccc(O)c(OC)c3)n(C(=O)Nc3ccc(F)cc3)n2)ccc1O`, for which the GI50 in the test with HCT-15 colon is 0.566 µM; with IGROV1 ovarian, 2.38 µM; with K-562 leukemia, 0.371 µM; with MOLT-4 leukemia it was 0.471 µM; in the test on OVCAR-3 ovarian it was 0.474 µM; in the test with OVCAR-4 ovarian, 1.36 µM. Also, the GI50 was 1.5 µM with OVCAR-8 ovarian, 0.515 µM with SK-MEL-2 melanoma, 0.817 µM in the test with UACC-62 melanoma and 0.587 µM in the test with UO-31 renal. Besides, the TGI is 21.8 µM with HCT-15 colon; 34.3 µM in the test with IGROV1 ovarian; 2.91 µM with K-562 leukemia; above 22.8 µM in the test with MOLT-4 leukemia; 3.13 µM with OVCAR-3 ovarian; 7.57 µM with OVCAR-4 ovarian. Besides, the TGI was found to be 4.79 µM with OVCAR-8 ovarian, 3.32 µM in the test with SK-MEL-2 melanoma, 6.68 µM with UACC-62 melanoma and 6.27 µM in the test on UO-31 renal.
Consider `O=C1c2cccnc2-c2nc(-c3ccccc3[N+](=O)[O-])cc3c2c1nc1ccccc13`, for which the GI50 with HCT-15 colon was 12 µM; in the test with IGROV1 ovarian, 12.3 µM; in the test with K-562 leukemia, above 28.8 µM; in the test with OVCAR-3 ovarian, 0.432 µM; in the test on OVCAR-4 ovarian it was 6.63 µM; in the test on OVCAR-8 ovarian, 13.1 µM. In addition, the figures for the GI50 in the test with SK-MEL-2 melanoma, in the test on UACC-62 melanoma and in the test on UO-31 renal were 10.3 µM, 9.9 µM and 12.5 µM, respectively. The TGI is 32.9 µM in the test with HCT-15 colon; 83.3 µM in the test with IGROV1 ovarian; above 100 µM in the test on K-562 leukemia; above 100 µM with MOLT-4 leukemia; above 32.4 µM in the test with OVCAR-3 ovarian; above 70.4 µM in the test with OVCAR-4 ovarian. In addition, the TGI with OVCAR-8 ovarian is 44.2 µM; with SK-MEL-2 melanoma it was 53.1 µM; with UACC-62 melanoma, 40.9 µM; in the test on UO-31 renal it was 32.5 µM.
Regarding `NS(=O)(=O)c1ccccc1C(=O)N/N=C(\c1nc2ccc([N+](=O)[O-])cc2[nH]c1=O)C(O)c1ccc([N+](=O)[O-])cc1` (stereo not given), the TGI in the test with HCT-15 colon, in the test on IGROV1 ovarian, with K-562 leukemia, in the test on MOLT-4 leukemia, with OVCAR-3 ovarian and with OVCAR-4 ovarian was above 100 µM throughout. Further, the TGI in the test with OVCAR-8 ovarian, in the test on SK-MEL-2 melanoma, in the test on UACC-62 melanoma and with UO-31 renal was above 100 µM each time.
Turning to `COc1ccc2c(c1)C1(C=N2)CCN(C(C)=O)CC1`, the TGI in the test with HCT-15 colon, with IGROV1 ovarian, in the test with K-562 leukemia, with MOLT-4 leukemia, with OVCAR-3 ovarian and with OVCAR-4 ovarian was above 100 µM throughout. Moreover, the TGI in the test on OVCAR-8 ovarian, with SK-MEL-2 melanoma and with UACC-62 melanoma was above 100 µM throughout.
For the compound `C=CCc1cc(OC)c2c(c1)C(O)CC(c1ccc(OC)c(OC)c1)O2` (stereo not given), the TGI with HCT-15 colon, in the test with IGROV1 ovarian, in the test with K-562 leukemia, in the test with MOLT-4 leukemia, in the test on OVCAR-3 ovarian and in the test with OVCAR-4 ovarian was above 100 µM each time. The TGI with OVCAR-8 ovarian, in the test with SK-MEL-2 melanoma, in the test with UACC-62 melanoma and in the test on UO-31 renal was above 100 µM each time.
Consider `COC(=O)[C@@]12C3=NO[C@]1(C(=O)OC)C(O[Si](C)(C)C(C)(C)C)[C@H]1OC(C)(C)O[C@H]1[C@@H]2C(OCc1ccccc1)CC3` (stereo not given in full), for which the TGI in the test with HCT-15 colon is above 100 µM; in the test on IGROV1 ovarian it was above 100 µM; in the test on K-562 leukemia it was above 100 µM; with MOLT-4 leukemia, above 100 µM; in the test on OVCAR-3 ovarian it was above 100 µM; with OVCAR-4 ovarian, 97.2 µM. The TGI with OVCAR-8 ovarian, with SK-MEL-2 melanoma, in the test with UACC-62 melanoma and with UO-31 renal was above 100 µM each time.
Regarding `N#CC(C#N)=c1ccc(=C2NCC3CCCN23)cc1` (stereo not given), the TGI with HCT-15 colon, in the test on IGROV1 ovarian, with K-562 leukemia, with MOLT-4 leukemia, with OVCAR-4 ovarian and in the test on OVCAR-8 ovarian was above 100 µM in each case. Moreover, the TGI in the test with SK-MEL-2 melanoma, in the test with UACC-62 melanoma and in the test on UO-31 renal was above 100 µM in each case.

The values are drawn from PubChem BioAssay (NCI).
